Patent publication US8691768B2, “Methods of determining delta opioid receptor subtypes” (The Regents of the University of California, priority 2008, dated 2014)

Key:
[1] = test system: Lewis rats, ventral tegmental area (VTA); assay: Ethanol self-administration (two-bottle continuous access) after microinjection into the VTA; type: in vivo
Protocol: Male Lewis rats (Harlan Laboratories, Indianapolis, Ind.) weighing between 275-300 g were individually housed in a temperature controlled colony room (21° C.) maintained on a reversed light/dark cycle 12L:12D cycle (lights off at 10 A.M., lights on at 10 P.M.). All experiments were performed during the dark portion of the cycle. Food and water was provided ad libitum.
Ethanol was administered via a two-bottle continuous access, free-choice paradigm in which one bottle contained 10% ETOH (v/v) and the other bottle contained water. Sucrose was never added to the ethanol solution. The amount of ETOH and water consumed was measured at the same time daily (10 A.M.). […] Animals were weighed daily. Bottles were identical and their positions were counterbalanced and rotated daily. Change in drinking was calculated by subtracting the amount of drinking (mg/kg) on the day following treatment from the amount of drinking (mg/kg) on the day prior to treatment.
Animals were anesthetized and maintained on isoflurane (0.5 l/min) as needed for the duration of surgery. Animals were placed in a stereotaxic frame and were implanted with bilateral 26-gauge stainless steel chronic guide cannulas (Plastincs One, Roanoke, Va.) into the VTA (AP, −5.8; ML, ±0.5; DV, −7.0) based on the atlas of Paxinos and Watson (1997, The rat brain in sterotaxic coordinates, compact, Ed 3. San Diego: Academic). Cannulas were secured to the skull with dental cement. At the end of the surgical procedure, animals were treated with penicillin and topical antibiotics. A stainless steel dummy cannula (Plastics One) was inserted into each guide cannula and remained in place when the guide cannulas were not in use. Animals were allowed a 1 week recovery period before behavioral testing.
Each injection was made using a 1 μl syringe (Hamilton, Reno, Nev.) attached to 20 cm of PE 50 tubing connected to a 33-gauge injection cannula (Plastics One). Microinjections of 0.5 μl volumes were given at a rate of 0.5 μl/min using a syringe pump (kd Scientific, Hollister, Mass.) into each side of the VTA, except for bicuculline injections, where 0.25 μl was injected per side. Injection cannulas extended 2 mm beyond guide cannulas and were left in place for 1 min following microinjections to minimize the backflow of drug solution. In addition to drug microinjections, physiological saline microinjections were made in every rat to measure the effect of the injection manipulation alone on drinking Drug injections were randomized and counterbalanced. Change in drinking due to drug microinjections was calculated by comparing both the previous day's consumption (“baseline”) and to saline injection. At the conclusion of the experiment, animals were anesthetized with pentobarbital and perfused intracardially through the ascending aorta with 0.1 M phosphate buffered saline followed by 10% formalin. Brains were sectioned coronally at 50 μm, mounted and stained with cresyl violet. Only animals with confirmed injection sites within the VTA were included. No behavioral differences were observed between animals with anterior compared with posterior cannula placements.
For behavioral experiments, DPDPE (10mM; Sigma, St. Louis, Mo.), TIPP-ψ (5 μM; NIDA, Bethesda, Md.), Bicuculline (1 mM; Sigma), DAMGO (0.2 mM; Sigma), and CTOP (10 mM; Tocris, Ellisville, Mo.) were prepared in physiological saline for microinjection into the VTA. For electrophysiology, all drugs were applied by bath perfusion. Stock solutions were made and diluted in artificial CSF immediately before application. All chemicals were obtained from Sigma or Tocris except TIPP-ψ, which was acquired from NIDA.
Results are presented as mean±SEM where appropriate. For behavioral data, drinking was analyzed using 24 h time points. Raw drinking data were used for paired Student's t test comparisons probing drug effects on drinking compared with baseline or saline injections, a more conservative comparison than analyzing normalized data. […]

[2] = test system: GABAA IPSCs in VTA neurons; assay: Slice electrophysiology, whole-cell patch-clamp of GABAA IPSCs in VTA neurons; type: cell-based, Lewis rats
[3] = test system: Lewis rats; assay: Cocaine self administration after VTA microinjection; type: in vivo; conditions: 10 mM into VTA, compared to saline
Protocol: Lewis rats (Charles River, Mass.) weighing 275-350 g at the beginning of behavioral testing are housed and treated as previously described. Prior to cocaine self administration, rats are anesthetized with a ketamine-xylazine-acepromazine mixture and implanted with a chronic jugular catheter using methods previously described (Caine & Koob, 1993). Following surgery, rats receive daily administration of the antibiotic ticarcillin (20 mg/day at 100 mg/ml; GlaxoSmithKline, Research Triangle Park, NC). Catheter patency is tested by infusion of the fast-acting barbiturate Brevital (methohexital sodium; 1 mg/0.1 ml; Lilly, Indianapolis, Ind.). Self-administration training is conducted in operant-conditioning chambers enclosed within sound-attenuating cabinets (MED Associates, St. Albans, Vt.). […] Presses on the active lever result in either a 120 microL infusion of cocaine over a 4-s period via a Razel pump (Razel Scientific Instruments, Fairfax, Vt.) or delivery of a 45-mg food pellet (Bio-Serv, Frenchtown, N.J.). […] Presses on the active lever result in a 20-s time-out, signaled by illumination of the stimulus light and retraction of the active lever. […] Following training, rats are microinjected with either 10 mM DPDPE or saline directly into the VTA prior to cocaine self-administration and active lever presses are recorded.

[4] = 1 μM, VTA neurons from drinking animals

Substance: (2-D-penicillamine, 5-D-penicillamine)-enkephalin [DPDPE]
- drinking (EtOH) ([1]; 10 mM into VTA, compared with control saline microinjections in the same rats): also evident
- drinking (EtOH) ([1]; 10 mM into VTA, high drinkers): only at trend level
- drinking (EtOH) ([1]; 10 mM into VTA, low drinkers): particularly prominent
- relation between baseline EtOH consumption and % baseline drinking following administration ([1]; 10 mM into VTA, n=15): inverse correlation
- drinking (EtOH) ([1]; 10 mM microinjected into VTA, all animals, compared with the day before treatment): decreased drinking
- relation between DPDPE induced inhibition of evoked and spontaneous IPSCs and amount of EtOH consumed [2]: inverse correlation
- evoked IPSCs [2, 4]: significantly inhibited
- spontaneous IPSCs [2, 4]: significantly inhibited
- GABA release onto VTA neurons ([2]; abstinent animals, 3 and 7 days off bottles): maintained its ability to inhibit GABA release
- GABAA IPSCs ([2]; age-matched, ethanol-naive, control animals): no effect
- saturating dose ([2]; dose-response in the animal groups, in presence of 1 μM CTAP): 1 µM
- GABA release in the VTA ([2]; low drinkers): Decreases GABA Release
- cocaine self administration (active lever presses) [3]: decrease cocaine self administration
